The record followed here is patent US9050345B2, “Pyrrolotriazines as potassium ion channel inhibitors” (BRISTOL-MYERS SQUIBB COMPANY, priority 2013, dated 2015).

SMILES strings stand for the structures.

This assay deals with T1, human KV 1.5 (IKur) (Homo sapiens, UniProt P22460).
T1 construct: expressed in transfected cells
T1 sequence (P22460 whole entry): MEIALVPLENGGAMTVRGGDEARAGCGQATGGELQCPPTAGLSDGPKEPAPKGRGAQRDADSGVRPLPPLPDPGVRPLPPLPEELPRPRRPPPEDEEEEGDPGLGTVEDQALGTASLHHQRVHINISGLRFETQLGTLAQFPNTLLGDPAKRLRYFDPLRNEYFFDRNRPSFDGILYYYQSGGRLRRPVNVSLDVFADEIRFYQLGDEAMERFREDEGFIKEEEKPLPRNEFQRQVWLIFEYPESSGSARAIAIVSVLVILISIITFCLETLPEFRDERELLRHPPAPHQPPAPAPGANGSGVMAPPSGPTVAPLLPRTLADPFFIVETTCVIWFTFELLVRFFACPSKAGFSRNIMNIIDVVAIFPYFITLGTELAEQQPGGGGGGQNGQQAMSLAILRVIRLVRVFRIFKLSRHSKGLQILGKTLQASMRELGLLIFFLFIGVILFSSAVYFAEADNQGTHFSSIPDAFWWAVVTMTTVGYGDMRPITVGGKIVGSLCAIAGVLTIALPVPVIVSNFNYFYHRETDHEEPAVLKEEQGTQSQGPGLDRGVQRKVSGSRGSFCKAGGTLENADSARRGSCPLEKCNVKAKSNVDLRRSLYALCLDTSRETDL
Briefly: block of IKur current in patch clamped L-929 cells expressing human Kv1.5. In kind it is cell-based. As to conditions: L929, 0.3 μM; patch clamped mammalian L-929 cells stably expressing human Kv1.5; read-out: KV1_5% Inh L929 @0.3 μM. From the text: Assays to determine the degree of activity of a compound as an IKur inhibitor are well known in the art and are described in references such as J. Gen. Physiol., 101(4):513-543 (April 1993), and Br. J. Pharmacol., 115(2):267-274 (May 1995).
Synders, D. J. et al., “A rapidly activating and slowly inactivating potassium channel cloned from human heart: functional analysis after stable mammalian cell culture expression”, J. Gen. Physiol., 101:513-543 (1993). • 2. Zhou, Z. et al., “Block of HERG potassium channels by the antihistamine astemizole and its metabolites desmethylastemizole and norastemizole”, J. Cardiovasc. Electrophysiol., 10(6):836-843 (1999).
In the case of `COC(=O)C(CS(N)(=O)=O)NC(=O)c1cncc(-c2nc(NCc3ccccc3)c3c(-c4ccccc4)ccn3n2)c1` (stereo not shown) [Example 45, Methyl 2-(5-(4-(benzylamino)-5-phenylpyrrolo[2,1-f][1,2,4]triazin-2-yl)nicotinamido)-3-sulfamoylpropanoate], the inhibition at 0.3 µM came out at 90.1%.
With `CC(=O)Nc1cncc(-c2nc(NCc3ccccn3)c3c(-c4ccccc4)ccn3n2)c1` [Example 47, N-(5-(5-phenyl-4-(pyridin-2-ylmethylamino)pyrrolo[1,2-f][1,2,4]triazin-2-yl)pyridin-3-yl)acetamide] the figure was 94.8%; with `CC(=O)Nc1cccc(-c2nc(NCc3ccccn3)c3c(-c4ccccc4)ccn3n2)c1` [Example 48, N-(3-(5-phenyl-4-(pyridin-2-ylmethylamino)pyrrolo[1,2-f][1,2,4]triazin-2-yl)phenyl) acetamide], 96.6%; with `NS(=O)(=O)c1cc(-c2nc(NCc3ccccn3)c3c(-c4ccccc4)ccn3n2)cnc1O` [Example 49, 2-hydroxy-5-(5-phenyl-4-(pyridin-2-ylmethylamino)pyrrolo[1,2-f][1,2,4]triazin-2-yl)pyridine-3-sulfonamide], 84.9%.
Consider `NS(=O)(=O)Nc1cccc(-c2nc(NCc3ccccn3)c3c(-c4ccccc4)ccn3n2)c1` [Example 50], for which the inhibition at 0.3 µM came out at 97.8%.
Consider `CCOC(=O)CS(=O)(=O)Nc1cncc(-c2nc(NCc3ccccn3)c3c(-c4ccccc4)ccn3n2)c1` [Example 51, ethyl 2-(N-(5-(5-phenyl-4-(pyridin-2-ylmethylamino)pyrrolo[1,2-f][1,2,4]triazin-2-yl)pyridin-3-yl)sulfamoyl)acetate], for which the inhibition at 0.3 µM was determined as 88.2%.
Consider `NC(=O)CC(=O)Nc1cncc(-c2nc(NCc3ccccn3)c3c(-c4ccccc4)ccn3n2)c1` [Example 52, N1-(5-(5-phenyl-4-(pyridin-2-ylmethylamino)pyrrolo[1,2-f][1,2,4]triazin-2-yl)pyridin-3-yl)malonamide], for which the inhibition at 0.3 µM worked out at 96.1%.
For the compound `CC(=O)Nc1ccccc1-c1nc(NCc2ccccn2)c2c(-c3ccccc3)ccn2n1` [Example 53, N-(2-(5-phenyl-4-(pyridin-2-ylmethylamino)pyrrolo[1,2-f][1,2,4]triazin-2-yl)phenyl) acetamide], the inhibition at 0.3 µM came to 98.1%.
As for `CC(=O)Nc1ccc(-c2nc(NCc3ccccn3)c3c(-c4ccccc4)ccn3n2)cn1` [Example 54, N-(5-(5-phenyl-4-(pyridin-2-ylmethylamino)pyrrolo[1,2-f][1,2,4]triazin-2-yl)pyridin-2-yl)acetamide], the inhibition at 0.3 µM is 90.2%.
With `NC(=O)CS(=O)(=O)Nc1cncc(-c2nc(NCc3ccccn3)c3c(-c4ccccc4)ccn3n2)c1` [Example 55, 2-(N-(5-(5-phenyl-4-(pyridin-2-ylmethylamino)pyrrolo[1,2-f][1,2,4]triazin-2-yl)pyridin-3-yl)sulfamoyl)acetamide], the inhibition at 0.3 µM was found to be 20.6%.
As to `O=S(=O)(Nc1cncc(-c2nc(NCc3ccccn3)c3c(-c4ccccc4)ccn3n2)c1)C1CC1` [Example 56, N-(5-(5-phenyl-4-(pyridin-2-ylmethylamino)pyrrolo[1,2-f][1,2,4]triazin-2-yl)pyridin-3-yl) cyclopropanesulfonamide], the inhibition at 0.3 µM is 93.8%.
Consider `CCCS(=O)(=O)Nc1cncc(-c2nc(NCc3ccccn3)c3c(-c4ccccc4)ccn3n2)c1` [Example 57, N-(5-(5-phenyl-4-(pyridin-2-ylmethylamino)pyrrolo[1,2-f][1,2,4]triazin-2-yl)pyridin-3-yl) propane-1-sulfonamide], for which the inhibition at 0.3 µM is 95.5%.
For `CC(C)CS(=O)(=O)Nc1cncc(-c2nc(NCc3ccccn3)c3c(-c4ccccc4)ccn3n2)c1` [Example 58, 2-methyl-N-(5-(5-phenyl-4-(pyridin-2-ylmethylamino)pyrrolo [1,2-f][1,2,4]triazin-2-yl)pyridin-3-yl) propane-1-sulfonamide], the inhibition at 0.3 µM stood at 96.1%.
For the compound `CCOC(=O)Nc1cncc(-c2nc(NCc3ccccn3)c3c(-c4ccccc4)ccn3n2)c1` [Example 59, ethyl 5-(5-phenyl-4-(pyridin-2-ylmethylamino)pyrrolo[1,2-f][1,2,4]triazin-2-yl)pyridin-3-ylcarbamate], the inhibition at 0.3 µM was 97%.
In the case of `CCOC(=O)CS(=O)(=O)Nc1cccc(-c2nc(NCc3ccccn3)c3c(-c4ccccc4)ccn3n2)c1` [Example 60, ethyl 2-(N-(3-(5-phenyl-4-(pyridin-2-ylmethylamino)pyrrolo[1,2-f][1,2,4]triazin-2-yl)phenyl)sulfamoyl)acetate] it was 97.6%.
Turning to `O=S(=O)(CC(F)(F)F)Nc1cncc(-c2nc(NCc3ccccn3)c3c(-c4ccccc4)ccn3n2)c1` [Example 61, 2,2,2-trifluoro-N-(5-(5-phenyl-4-(pyridin-2-ylmethylamino)pyrrolo [1,2-f][1,2,4]triazin-2-yl)pyridin-3-yl)ethanesulfonamide], the inhibition at 0.3 µM is 90%.
Consider `CCS(=O)(=O)Nc1cncc(-c2nc(NCc3ccccn3)c3c(-c4ccccc4)ccn3n2)c1` [Example 62, N-(5-(5-phenyl-4-(pyridin-2-ylmethylamino)pyrrolo[1,2-f][1,2,4]triazin-2-yl)pyridin-3-yl)ethanesulfonamide], for which the inhibition at 0.3 µM was determined as 97.9%.
Regarding `O=S(=O)(CCCCl)Nc1cncc(-c2nc(NCc3ccccn3)c3c(-c4ccccc4)ccn3n2)c1` [Example 63, 3-chloro-N-(5-(5-phenyl-4-(pyridin-2-ylmethylamino)pyrrolo[1,2-f][1,2,4]triazin-2-yl)pyridin-3-yl)propane-1-sulfonamide], the inhibition at 0.3 µM was 97.8%.
Consider `CC(C)S(=O)(=O)Nc1cncc(-c2nc(NCc3ccccn3)c3c(-c4ccccc4)ccn3n2)c1` [Example 64, N-(5-(5-phenyl-4-(pyridin-2-ylmethylamino)pyrrolo[1,2-f][1,2,4]triazin-2-yl)pyridin-3-yl)propane-2-sulfonamide], for which the inhibition at 0.3 µM was determined as 97.6%.
With `c1ccc(-c2ccn3nc(-c4cn[nH]c4)nc(NCc4ccccn4)c23)cc1` [Example 65, 5-phenyl-2-(1H-pyrazol-4-yl)-N-(pyridin-2-ylmethyl) pyrrolo[1,2-f][1,2,4] triazin-4-amine] the figure was 97.7%.
Consider `N#Cc1cccc(-c2nc(NCc3ccccn3)c3c(-c4ccccc4)ccn3n2)c1` [Example 66, 3-(5-phenyl-4-(pyridin-2-ylmethylamino)pyrrolo[1,2-f][1,2,4]triazin-2-yl)benzonitrile], for which the inhibition at 0.3 µM is 89.2%.
With `N#Cc1ccc(-c2nc(NCc3ccccn3)c3c(-c4ccccc4)ccn3n2)cc1` [Example 67, 4-(5-phenyl-4-(pyridin-2-ylmethylamino)pyrrolo [1,2-f][1,2,4]triazin-2-yl)benzonitrile], the inhibition at 0.3 µM stood at 97.8%.
In the case of `Nc1cncc(-c2nc(NCc3ccccn3)c3c(-c4cncc(N)c4)ccn3n2)c1` [Example 68, 5,5′-(4-(pyridin-2-ylmethylamino)pyrrolo [1,2-f][1,2,4]triazine-2-,5-diyl)dipyridin-3-amine] it was 28.1%; in that of `N#Cc1cccc(-c2ccn3nc(-c4cncc(N)c4)nc(NCc4ccccn4)c23)c1` [Example 69, 3-(2-(5-aminopyridin-3-yl)-4-(pyridin-2-ylmethylamino)pyrrolo [1,2-f][1,2,4]triazin-5-yl)benzonitrile], 80.3%.
As to `COc1ccc(-c2ccn3nc(-c4cncc(N)c4)nc(NCc4ccccn4)c23)cn1` [Example 70, 2-(5-aminopyridin-3-yl)-5-(6-methoxypyridin-3-yl)-N-(pyridin-2-ylmethyl) pyrrolo[1,2-f][1,2,4] triazin-4-amine], the inhibition at 0.3 µM was found to be 85.4%.
For the compound `Cc1ncc(-c2nc(NCc3ccccn3)c3c(-c4ccccc4)ccn3n2)cc1N` [Example 71, 2-(5-amino-6-methylpyridin-3-yl)-5-phenyl-N-(pyridin-2-ylmethyl)pyrrolo[1,2-f] [1,2,4]triazin-4-amine], the inhibition at 0.3 µM was 89.1%.
In the case of `CC(C)OC(=O)Nc1cncc(-c2nc(NCc3ccccn3)c3c(-c4ccccc4)ccn3n2)c1` [Example 72, isopropyl 5-(5-phenyl-4-(pyridin-2-ylmethylamino)pyrrolo[1,2-f][1,2,4]triazin-2-yl)pyridin-3-ylcarbamate] it was 95.5%; in that of `Nc1cncc(-c2nc(NCC3CCCCC3)c3c(-c4ccccc4)ccn3n2)c1` [Example 73, 2-(5-aminopyridin-3-yl)-N-(cyclohexylmethyl)-5-phenylpyrrolo[1,2-f] [1,2,4] triazin-4-amine], 88.3%.
As for `CS(=O)(=O)Nc1cncc(-c2nc(NCc3ccccc3)c3c(-c4ccccc4)ccn3n2)c1` [Example 74, N-(5-(4-(benzylamino)-5-phenylpyrrolo [1,2-f][1,2,4]triazin-2-yl)pyridin-3-yl) methanesulfonamide], the inhibition at 0.3 µM was 96.7%.
Turning to `CS(=O)(=O)Nc1cncc(-c2nc(NCC3CCCCC3)c3c(-c4ccccc4)ccn3n2)c1` [Example 75, N-(5-(4-(cyclohexylmethylamino)-5-phenylpyrrolo[1,2-f] [1,2,4]triazin-2-yl)pyridin-3-yl)methanesulfonamide], the inhibition at 0.3 µM was found to be 90.9%.
As for `CC(Nc1nc(-c2cncc(S(N)(=O)=O)c2)nn2ccc(-c3ccccc3)c12)c1ccc(F)cc1` (stereo not shown) [Example 76, 5-(4-(1-(4-fluorophenyl)ethylamino)-5-phenylpyrrolo[1,2-f] [1,2,4]triazin-2-yl) pyridine-3-sulfonamide], the inhibition at 0.3 µM turned out to be 93.8%.
